# Reference: patent US10369138B2, “Monobactam organic compounds for the treatment of bacterial infections” (Novartis AG, priority 2014, dated 2019)
# Experiments:
# Type in all cases: cell-based
# [1] = system: E. coli NB27273-CDY0030 (SHV12); assay: MIC by broth microdilution, isogenic E. coli strain expressing SHV12; conditions: Escherichia coli, read-out: Strain 3 MIC
# Method: (§1) Bacterial isolates were cultivated from −70° C. frozen stocks by two consecutive overnight passages at 35° C. in ambient air on 5% blood agar (Remel, Lenexa, Kans.). Quality control and P. aeruginosa ATCC 27853) is from the American Type Culture Collection (ATCC; Rockville, Md.) and PAO1 was received from Dr. K. Poole.
# (§2) Strain NB27273 (BW25113 pspB::Km^r) was obtained from the Keio transposon insertion collection. The strain has the pspB gene replaced by a kanamycin resistance marker (BW25113 pspB::Km^r). This strain was cured of the transposon in pspB via FLP recombinase using published methodology. The resulting strain, BW25113 pspB, was used as a host for multicopy vectors expressing key β-lactamases. Multicopy plasmids directing constitutive expression of β-lactamases were established as follows: Synthetic, codon optimized genes encoding E. coli KPC2 and SHV12 β-lactamases were made by DNA2.0 (Palo Alto, Calif.). Each of the synthetic fragments were designed to contain NotI and NcoI restriction sites at their termini, allowing ligation into a NotI/NcoI digested pET28a(+) derivative for protein expression. […] The codon optimized nucleotide sequences and relevant primer recognition information is shown below:
# (§3) The PCR products were then digested with XhoI and EcoRI and ligated into similarly digested plasmid pAH63-pstS(BlaP). Plasmid pAH63-pstS(BlaP) is a derivative of plasmid pAH63 (J Bacteriol: 183(21): 6384-6393) made by cloning the TEM-1 (bla) promoter and signal peptide encoding region from plasmid pBAD (J Bacteriol. 1995 July 177(14):4121-30) into plasmid pAH63. This fragment was PCR amplified from pBAD using primer pair E192 (ttcaCTGCAGtgaacgttgcgaagcaacggC) (SEQ ID NO:13) and E194 (TCGAggatcctcgagagcaaaaacaggaaggcaaaatgccg) (SEQ ID NO:14), digested with PstI and BamHI and inserted into similarly digested plasmid pAH63. Therefore, expression of β-lactamases from pAH63-pstS(BlaP) based constructs is constitutive and the signal sequence is provided to direct these proteins to the periplasm. […] To accomplish this, the inserts encompassing the β-lactamase genes, with the associated TEM promoter and signal sequences, were PCR amplified from their corresponding vectors using primer E269 (ccgTCTAGAcggatggcctttttgcgtttc) (SEQ ID NO:15) and E202 (aatcGAATTCttactgaccattaacgcccaagc) (SEQ ID NO:16) for the KPC2 construct and E204 (aatcGAATTCttaacgctgccagtgctcaatc) (SEQ ID NO:17) for the SHV12 construct. These fragments were then digested with XbaI and EcoRI, and each was inserted into pBAD18-kan that had been digested with the same enzymes to generate a pair of multicopy vectors expressing KPC2 and SHV12 respectively. These vectors were transformed into BW25113 pspB to generate strains NB27273-CDY0033 (expressing KPC2) and NB27273-CDY0030 (expressing SHV12). The pBAD18-kan vector also contains the TEM promoter region and signal sequence, (but lacks any intact β-lactamase genes) and was transformed into BW25113 pspB using standard protocols to generate the control strain NB27273-CDY0026. […] Susceptibility Testing
# (§4) Minimal Inhibitory Concentrations (MICs) were determined by the broth microdilution method in accordance with Clinical and Laboratories Institute (CLSI) guidelines. In brief, fresh overnight bacterial cultures were suspended in sterile saline, and adjusted to a 0.5 McFarland turbidity standard. Bacterial suspensions were then diluted in cation adjusted Mueller-Hinton Broth (MHB II; BBL) to yield a final inoculum of approximately 5×10^5 colony-forming units (CFU)/mL. A master plate of antibiotics was prepared at a concentration equivalent to hundred-fold the highest desired final concentration in 100% dimethyl sulfoxide (DMSO). The master antibiotic plate was then diluted by serial twofold dilution with a multichannel pipette. The resulting dilution series of compounds were diluted 1:10 with sterile water leading to a 10% DMSO final concentration.
# E. coli strain 25922 = assay: MIC by broth microdilution, E. coli strain 25922; conditions: Escherichia coli, 25922, E. coli strain 25922; read-out: Ec 25922 (MIC)
# In short: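 CLSI broth microdilution in cation-adjusted Mueller-Hinton broth, inoculum about 5×10^5 CFU/mL, 10% DMSO from the diluted series, 20 h at 35-37° C. MIC is the lowest concentration preventing visible growth, read by eye and at 600 nm.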
# [2] = system: E. coli NB27273-CDY0026 (parent); assay: MIC by broth microdilution, isogenic E. coli parent strain; conditions: Escherichia coli, read-out: Strain 1 MIC
# Method: as §1, §2, §3, §4
# E. coli containing KPC-2 = assay: MIC by broth microdilution, E. coli containing KPC-2 (Ec KPC2 Iso); conditions: Escherichia coli, read-out: Ec KPC2 Iso (MIC), E. coli containing KPC-2 (carbapenemase from Klebsiella pneumoniae)
# In short: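 Host E. coli BW25113 pspB carrying multicopy pBAD18-kan plasmid with constitutive TEM-promoter KPC-2 expression (periplasmic signal sequence); broth microdilution per CLSI in cation-adjusted Mueller-Hinton broth, inoculum ~5×10^5 CFU/mL, compounds twofold serially diluted from DMSO masters (10% DMSO in dilution series added).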
# [3] = system: E. coli NB27273-CDY0033 (KPC2); assay: MIC by broth microdilution, isogenic E. coli strain expressing KPC2; conditions: Escherichia coli, read-out: Strain 2 MIC
# Method: as §1, §2, §3, §4
Compound,MIC [1] [µg/mL],MIC (E. coli strain 25922) [µg/mL],MIC [2] [µg/mL],MIC (E. coli containing KPC-2) [µg/mL],MIC [3] [µg/mL]
"CC(C)(O/N=C(\C(=O)N[C@@H]1C(=O)N(S(=O)(=O)O)[C@@H]1CN1CCCC1=O)c1csc(N)n1)C(=O)O [Example 1, 2-(((Z)-(1-(2-aminothiazol-4-yl)-2-oxo-2-(((3S,4R)-2-oxo-4-((2-oxopyrrolidin-1-yl)methyl)-1-sulfoazetidin-3-yl)amino)ethylidene)amino)oxy)-2-methylpropanoic acid]",2,16,1,2,2
"CC(C)(O/N=C(\C(=O)N[C@@H]1C(=O)N(S(=O)(=O)O)[C@@H]1Cn1nnc(CN)n1)c1csc(N)n1)C(=O)O [Example 4, 2-(((Z)-(2-(((2R,3S)-2-((5-(aminomethyl)-2H-tetrazol-2-yl)methyl)-4-oxo-1-sulfoazetidin-3-yl)amino)-1-(2-aminothiazol-4-yl)-2-oxoethylidene)amino)oxy)-2-methylpropanoic acid]",2,1,0.5,8,8
"N=C(N)NCc1cn(C[C@@H]2[C@H](NC(=O)/C(=N\OC3(C(=O)O)CC3)c3csc(N)n3)C(=O)N2S(=O)(=O)O)nn1 [Example 28, 1-(((Z)-(1-(2-aminothiazol-4-yl)-2-(((2R,3S)-2-((4-(guanidinomethyl)-1H-1,2,3-triazol-1-yl)methyl)-4-oxo-1-sulfoazetidin-3-yl)amino)-2-oxoethylidene)amino)oxy)-cyclopropanecarboxylic acid]",0.5,,≤ 0.06,,≤ 0.06
"CC(NC(=N)NCCCN)c1cnn(C[C@@H]2[C@H](NC(=O)/C(=N\OC3(C(=O)O)CC3)c3csc(N)n3)C(=O)N2S(=O)(=O)O)n1 (stereo partly drawn) [Example 145, 1-(((Z)-(2-(((2R,3S)-2-((4-(1-(3-(3-aminopropyl)guanidino)ethyl)-2H-1,2,3-triazol-2-yl)methyl)-4-oxo-1-sulfoazetidin-3-yl)amino)-1-(2-aminothiazol-4-yl)-2-oxoethylidene)amino)oxy)cyclopropanecarboxylic acid]",,0.5,,0.5,
"C[C@H](NCCCN)c1cnn(C[C@@H]2[C@H](NC(=O)/C(=N\OC3(C(=O)O)CC3)c3csc(N)n3)C(=O)N2S(=O)(=O)O)n1 [Example 146, 1-(((Z)-(2-(((2R,3S)-2-((4-((S)-1-((3-aminopropyl)amino)ethyl)-2H-1,2,3-triazol-2-yl)methyl)-4-oxo-1-sulfoazetidin-3-yl)amino)-1-(2-aminothiazol-4-yl)-2-oxoethylidene)amino)oxy)cyclopropanecarboxylic acid]",,0.5,,0.5,
"N=C(NCCOCCN)NCc1cnn(C[C@@H]2[C@H](NC(=O)/C(=N\OC3(C(=O)O)CC3)c3csc(N)n3)C(=O)N2S(=O)(=O)O)n1 [Example 147, 1-(((Z)-(2-(((2R,3S)-2-((4-((3-(2-(2-aminoethoxy)ethyl)guanidino)methyl)-2H-1,2,3-triazol-2-yl)methyl)-4-oxo-1-sulfoazetidin-3-yl)amino)-1-(2-aminothiazol-4-yl)-2-oxoethylidene)amino)oxy)cyclopropanecarboxylic acid]",,0.5,,0.5,
"CN(Cc1cnn(C[C@@H]2[C@H](NC(=O)/C(=N\OC3(C(=O)O)CC3)c3csc(N)n3)C(=O)N2S(=O)(=O)O)n1)C(=N)NCCCN [Example 148, 1-(((Z)-(2-(((2R,3S)-2-((4-((3-(3-aminopropyl)-1-methylguanidino)methyl)-2H-1,2,3-triazol-2-yl)methyl)-4-oxo-1-sulfoazetidin-3-yl)amino)-1-(2-aminothiazol-4-yl)-2-oxoethylidene)amino)oxy)cyclopropanecarboxylic acid]",,1,,1,
"NCC1CN(C(=O)OCc2cnn(C[C@@H]3[C@H](NC(=O)/C(=N\OC4(C(=O)O)CC4)c4csc(N)n4)C(=O)N3S(=O)(=O)O)n2)C1 [Example 149, 1-(((Z)-(2-(((2R,3S)-2-((4-(((3-(aminomethyl)azetidine-1-carbonyl)oxy)methyl)-2H-1,2,3-triazol-2-yl)methyl)-4-oxo-1-sulfoazetidin-3-yl)amino)-1-(2-aminothiazol-4-yl)-2-oxoethylidene)amino)oxy)cyclopropanecarboxylic acid]",,0.5,,0.5,
"N=C(NCc1cnn(C[C@@H]2[C@H](NC(=O)/C(=N\OC3(C(=O)O)CC3)c3csc(N)n3)C(=O)N2S(=O)(=O)O)n1)N1CC[C@H](N)C1 [Example 150, 1-(((Z)-(2-(((2R,3S)-2-((4-(((S)-3-aminopyrrolidine-1-carboximidamido)methyl)-2H-1,2,3-triazol-2-yl)methyl)-4-oxo-1-sulfoazetidin-3-yl)amino)-1-(2-aminothiazol-4-yl)-2-oxoethylidene)amino)oxy)cyclopropanecarboxylic acid]",,1,,0.5,
"CC(NCCCN)c1cnn(C[C@@H]2[C@H](NC(=O)/C(=N\OC3(C(=O)O)CC3)c3csc(N)n3)C(=O)N2S(=O)(=O)O)n1 (stereo partly drawn) [Example 151, 1-(((Z)-(2-(((2R,3S)-2-((4-(1-((3-aminopropyl)amino)ethyl)-2H-1,2,3-triazol-2-yl)methyl)-4-oxo-1-sulfoazetidin-3-yl)amino)-1-(2-aminothiazol-4-yl)-2-oxoethylidene)amino)oxy)cyclopropanecarboxylic acid]",,0.5,,0.5,
"NCCS(=O)(=O)Cc1cnn(C[C@@H]2[C@H](NC(=O)/C(=N\OC3(C(=O)O)CC3)c3csc(N)n3)C(=O)N2S(=O)(=O)O)n1 [Example 152, 1-(((Z)-(2-(((2R,3S)-2-((4-(((2-aminoethyl)sulfonyl)methyl)-2H-1,2,3-triazol-2-yl)methyl)-4-oxo-1-sulfoazetidin-3-yl)amino)-1-(2-aminothiazol-4-yl)-2-oxoethylidene)amino)oxy)cyclopropanecarboxylic acid]",,0.5,,0.5,
"C[C@H]1[C@H](NC(=O)/C(=N\OC(C)(C)C(=O)O)c2csc(N)n2)C(=O)N1S(=O)(=O)O [compound 1, reference compound]",> 32,,,,
"NC(=O)OC[C@@H]1[C@H](NC(=O)/C(=N\OCC(=O)O)c2csc(N)n2)C(=O)N1S(=O)(=O)O [compound 2, reference compound]",> 32,,0.125,,1
"CC1(C)[C@H](NC(=O)/C(=N\OCc2cc(=O)c(O)cn2O)c2csc(N)n2)C(=O)N1OS(=O)(=O)O [compound 3, reference compound]",> 32,,0.25,,0.5
"CC1(C)[C@H](NC(=O)/C(=N\O[C@@H](COc2ccc(C(=N)NC3CCNCC3)cc2)C(=O)O)c2csc(N)n2)C(=O)N1OS(=O)(=O)O [compound 4, reference compound]",32,,≤ 0.06,,0.25
